Assay results published in the NIST ThermoML archive (doi:10.1021/je0342825).

Test: xn = mol fraction of the nth substance listed
Conditions: 101.3 kPa, Liquid

CC(=O)O [acetic acid] + CO
Conditions	mass density, 293.15 K [kg/m3]	mass density, 298.15 K [kg/m3]	mass density, 303.15 K [kg/m3]	speed of sound, 293.15 K [m/s]	speed of sound, 298.15 K [m/s]	speed of sound, 303.15 K [m/s]	viscosity, 293.15 K [mPa·s]	viscosity, 298.15 K [mPa·s]	viscosity, 303.15 K [mPa·s]
x1 = 0.0498	811.92	807.17	802.41	1133	1116	1100	0.626	0.583	0.543
x1 = 0.1006	831.39	826.6	821.79	1143	1127	1111	0.676	0.628	0.585
x1 = 0.2016	867.61	862.71	857.79	1162	1146	1130	0.784	0.729	0.678
x1 = 0.2995	899.77	894.77	889.74	1178	1161	1145	0.899	0.825	0.765
x1 = 0.401	929.99	924.88	919.75	1189	1172	1156	1.038	0.954	0.879
x1 = 0.4992	956.37	951.16	945.92	1196	1179	1162	1.161	1.062	0.975
x1 = 0.5996	980.68	975.36	970.01	1198	1181	1164	1.274	1.162	1.062
x1 = 0.6998	1001.88	996.46	991.01	1195	1178	1161	1.352	1.229	1.124
x1 = 0.7969	1020.24	1014.72	1009.19	1187	1170	1153	1.38	1.26	1.151
x1 = 0.9	–	1031.06	1025.45	–	1156	1138	–	1.224	1.126
x1 = 0.9555	1043.82	1038.2	1032.56	1162	1145	1128	1.283	1.177	1.088
x1 = 1	1049.3	1043.65	1038	1149	1132	1115	1.211	1.115	1.034

CC(=O)O [acetic acid] + CCOC(C)=O
Conditions	mass density, 293.15 K [kg/m3]	mass density, 298.15 K [kg/m3]	mass density, 303.15 K [kg/m3]	speed of sound, 293.15 K [m/s]	speed of sound, 298.15 K [m/s]	speed of sound, 303.15 K [m/s]	viscosity, 293.15 K [mPa·s]	viscosity, 298.15 K [mPa·s]	viscosity, 303.15 K [mPa·s]
x1 = 0.0697	907.35	901.3	895.2	1165	1143	1121	0.473	0.446	0.422
x1 = 0.0988	910.56	904.53	898.44	1166	1144	1122	0.485	0.458	0.433
x1 = 0.196	920.61	914.62	908.59	1166	1144	1123	0.523	0.493	0.465
x1 = 0.2944	931.46	925.5	919.49	1165	1144	1123	0.561	0.528	0.498
x1 = 0.3968	943.68	937.74	931.77	1165	1143	1123	0.617	0.577	0.541
x1 = 0.5007	957.31	951.4	945.46	1163	1142	1122	0.668	0.627	0.589
x1 = 0.5967	971.28	965.4	959.5	1162	1141	1121	0.731	0.684	0.642
x1 = 0.7	987.79	981.94	976.09	1159	1140	1120	0.817	0.762	0.714
x1 = 0.7989	1005.47	999.66	993.85	1157	1137	1119	0.912	0.848	0.792
x1 = 0.8993	1025.8	1020.06	1014.32	1153	1135	1117	1.052	0.975	0.91
x1 = 0.9493	1037.09	1031.4	1025.69	1152	1134	1116	1.113	1.031	0.958
x1 = 1	1049.3	1043.65	1038	1149	1132	1115	1.211	1.115	1.034

CC(=O)O [acetic acid] + CCO
Conditions	mass density, 293.15 K [kg/m3]	mass density, 298.15 K [kg/m3]	mass density, 303.15 K [kg/m3]	speed of sound, 293.15 K [m/s]	speed of sound, 298.15 K [m/s]	speed of sound, 303.15 K [m/s]	viscosity, 293.15 K [mPa·s]	viscosity, 298.15 K [mPa·s]	viscosity, 303.15 K [mPa·s]
x1 = 0.0493	803.5	799.15	794.78	1168	1151	1133	1.19	1.083	0.989
x1 = 0.1004	817.3	812.87	808.39	1173	1156	1139	1.195	1.089	0.994
x1 = 0.1992	844.8	840.2	835.58	1182	1165	1148	1.23	1.12	1.023
x1 = 0.2971	871.59	866.86	862.09	1190	1172	1155	1.276	1.162	1.06
x1 = 0.3962	898.37	893.5	888.6	1195	1177	1160	1.336	1.215	1.108
x1 = 0.4961	924.97	919.96	914.93	1197	1179	1162	1.383	1.258	1.152
x1 = 0.5981	951.75	946.59	941.42	1196	1178	1160	1.432	1.297	1.183
x1 = 0.7031	978.85	973.55	968.23	1192	1175	1157	1.444	1.31	1.198
x1 = 0.7973	1002.17	996.74	991.29	1184	1166	1149	1.419	1.291	1.181
x1 = 0.8979	1026.4	1020.84	1015.28	1171	1153	1136	1.338	1.225	1.126
x1 = 0.9515	1038.72	1033.11	1027.5	1161	1143	1126	1.275	1.172	1.084
x1 = 1	1049.3	1043.65	1038	1149	1132	1115	1.211	1.115	1.034

CCOC(C)=O [ethyl acetate] + CC(=O)O
x2 = 0
Conditions	mass density [kg/m3]	speed of sound [m/s]	viscosity [mPa·s]
293.15 K	900.52	1163	0.452
298.15 K	894.43	1140	0.426
303.15 K	888.3	1118	0.403

O [water] + CC(=O)O
x2 = 0
Conditions	viscosity [mPa·s]
293.15 K	1.003
298.15 K	0.89
303.15 K	0.797
